# Results published in patent US20230382910A1, “HETEROARYL COMPOUNDS FOR THE TREATMENT OF PAIN” (VERTEX PHARMACEUTICALS INCORPORATED, priority 2022, published 2023).
# Molecular target: human NaV 1.8 (Homo sapiens, UniProt Q9Y5Y9)
# Assay: E-VIPR Assay Detecting and Measuring NaV Inhibition Properties
# Type: cell-based
# Conditions: HEK cells expressing a truncated form of human NaV 1.8; electrical stimulation, membrane potential FRET dyes; read-out: measured IC50 value in the E-VIPR Assay
# From the text: E-VIPR Assay Detecting and Measuring NaV Inhibition Properties
# Sodium ion channels are voltage-dependent proteins that can be activated by inducing membrane voltage changes by applying electric fields. The electrical stimulation instrument and methods of use, referred to as E-VIPR, are described in International Publication No. WO 2002/008748 A3 and C.-J. Huang et al. Characterization of voltage-gated sodium channel blockers by electrical stimulation and fluorescence detection of membrane potential, 24 Nature Biotech. 439-46 (2006), both of which are incorporated by reference in their entirety. The instrument comprises a microtiter plate handler, an optical system for exciting the coumarin dye while simultaneously recording the coumarin and oxonol emissions, a waveform generator, a current- or voltage-controlled amplifier, and parallel electrode pairs that are inserted into assay plate wells. Under integrated computer control, this instrument passes user-programmed electrical stimulus protocols to cells within the wells of the microtiter plate.
# 16-20 hours prior to running the assay on E-VIPR, HEK cells expressing a truncated form of human NaV 1.8 with full channel activity were seeded into microtiter 384-well plates, pre-coated with matrigel, at a density of 25,000 cells per well. 2.5-5% KIR2.1 BacMam virus was added to the final cell suspension before seeding into cell plates. HEK cells were grown in Dulbecco's Modified Eagle's Medium (DMEM) supplemented with 10% FBS (Fetal Bovine Serum, qualified; Sigma #F4135), 1% NEAA (Non-Essential Amino Acids, Gibco #11140), 1% HEPES (Gibco #15630), 1% Pen-Strep (Penicillin-Streptomycin; Gibco #15140) and 5 μg/ml Blasticidin (Gibco #R210-01). Cells were expanded in 5-layer CellSTACK culture chambers or cell culture flasks with vented caps, with 90-95% humidity and 5% CO2.
# Compound Loading Buffer (2× concentration): Na/TMA Cl Bath1 Buffer containing HS (omitted in experiments run in the absence of human serum (HS)) 50%, VABSC-1 1 mM, BSA 0.2 mg/ml (in Bath-1), KCl 9 mM, DMSO 0.625%.
# Assay Protocol (7 Key Steps):
# 1) To reach the final concentration in each well, 375 nL of each compound was pre-spotted (in neat DMSO) into polypropylene compound plates at 240× desired final concentration from an intermediate stock concentration of 0.075 mM, in an 11-point dose response, 3-fold dilution, resulting in a top dose of 300 nM final concentration in the cell plate. Vehicle control (neat DMSO), and positive control (an established NaV1.8 inhibitor, 25 μM final in assay in DMSO) were added manually to the outermost columns of each plate respectively. The compound plate was backfilled with 45 μL per well of Compound Loading Buffer resulting in a 240-fold dilution of compound following a 1:1 transfer of compound into the cell plate (see Step 6). Final DMSO concentration for all wells in the assay was 0.625% (0.75% DMSO was supplemented to the Compound Loading Buffer for a final DMSO concentration of 0.625%). This assay dilution protocol was adjusted to enable a higher dose range to be tested in the presence of HS or if the final assay volume was altered.
# 2) Hexyl Dye Solution was prepared.
# 3) Cell plates were prepared. On the day of the assay, the media was aspirated, and the cells were washed three times with 80 μL of Bath-1 buffer, maintaining 25 μL residual volume in each well.
# 4) 25 μL per well of Hexyl Dye Solution was dispensed into the cell plates. The cells were incubated for 20 minutes at room temperature or ambient conditions in darkness.
# 5) 45 μL per well of Compound Loading Buffer was dispensed into compound plates.
# 6) The cell plates were washed three times with 80 μL per well of Bath-1 Buffer, leaving 25 µL of residual volume. Then 25 μL per well from compound plate was transferred to each cell plate. The mixture was incubated for 30 minutes at room temperature/ambient conditions. […]
# Chain of human NaV 1.8 (Q9Y5Y9 126-399 limits assumed): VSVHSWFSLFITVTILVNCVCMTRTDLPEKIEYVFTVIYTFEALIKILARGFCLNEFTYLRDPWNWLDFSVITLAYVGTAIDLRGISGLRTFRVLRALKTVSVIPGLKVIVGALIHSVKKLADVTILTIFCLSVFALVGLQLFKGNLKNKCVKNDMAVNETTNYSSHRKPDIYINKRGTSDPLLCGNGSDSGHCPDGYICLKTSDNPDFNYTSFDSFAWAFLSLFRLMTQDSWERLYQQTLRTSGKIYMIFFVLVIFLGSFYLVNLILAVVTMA
# Chain of human NaV 1.8 (Q9Y5Y9 660-890 limits assumed): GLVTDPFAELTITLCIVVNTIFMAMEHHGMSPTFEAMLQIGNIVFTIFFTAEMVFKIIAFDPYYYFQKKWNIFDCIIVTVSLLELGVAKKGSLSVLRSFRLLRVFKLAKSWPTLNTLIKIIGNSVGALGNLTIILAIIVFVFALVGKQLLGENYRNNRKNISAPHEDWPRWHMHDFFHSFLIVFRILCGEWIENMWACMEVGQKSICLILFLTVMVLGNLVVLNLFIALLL
# Chain of human NaV 1.8 (Q9Y5Y9 1148-1722 limits assumed): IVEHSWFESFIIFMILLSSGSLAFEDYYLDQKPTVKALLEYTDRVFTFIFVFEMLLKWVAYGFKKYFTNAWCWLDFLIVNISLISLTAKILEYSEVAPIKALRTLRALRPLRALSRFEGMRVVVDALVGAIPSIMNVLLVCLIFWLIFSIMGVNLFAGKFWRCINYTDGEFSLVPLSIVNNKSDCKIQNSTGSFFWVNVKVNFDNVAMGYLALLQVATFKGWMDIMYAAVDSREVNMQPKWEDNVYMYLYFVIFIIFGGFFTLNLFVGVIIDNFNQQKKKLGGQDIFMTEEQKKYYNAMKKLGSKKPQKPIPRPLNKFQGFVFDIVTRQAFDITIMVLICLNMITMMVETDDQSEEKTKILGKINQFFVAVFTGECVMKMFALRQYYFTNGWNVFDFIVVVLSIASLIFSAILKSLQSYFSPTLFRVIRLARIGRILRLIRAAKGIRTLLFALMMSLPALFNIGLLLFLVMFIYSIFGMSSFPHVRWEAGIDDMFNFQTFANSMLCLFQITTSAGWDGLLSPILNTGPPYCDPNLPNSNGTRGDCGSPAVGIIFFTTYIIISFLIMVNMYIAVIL
row,IC50 [µM],SMILES
1,0.5 to 2,"Cc1cc(C(C)(CO)C(F)(F)F)c(Cl)cc1-c1cc(=O)c2c(C(N)=O)nccc2[nH]1 (single isomer, unassigned) [Compound 365]"
2,0.5 to 2,"CC(C)(C)c1ccc(-c2cc(=O)c3ccccc3[nH]2)cc1 [Compound 5, 2-(4-tert-butylphenyl)-1H-quinolin-4-one]"
3,2 to 5,"Cc1ccc(-c2cc(=O)c3ccccc3[nH]2)c(C)c1 [Compound 6, 2-(2,4-dimethylphenyl)-1H-quinolin-4-one]"
4,0.5 to 2,"Cc1ccc(C(C)(C)C)cc1-c1cc(=O)c2ccccc2[nH]1 [Compound 7, 2-(5-tert-butyl-2-methyl-phenyl)-1H-quinolin-4-one]"
5,0.5 to 2,"Cc1cc(C2CC2)ccc1-c1cc(=O)c2ccccc2[nH]1 [Compound 8, 2-(4-cyclopropyl-2-methyl-phenyl)-1H-quinolin-4-one]"
6,0.5 to 2,"Cc1c(-c2cc(=O)c3ccccc3[nH]2)ccc2c1CCC2 [Compound 12, 2-(4-methylindan-5-yl)-1H-quinolin-4-one]"
7,2 to 5,"Cc1ccc(C(F)(F)F)cc1-c1cc(=O)c2ccccc2[nH]1 [Compound 17, 2-[2-methyl-5-(trifluoromethyl)phenyl]-1H-quinolin-4-one]"
8,2 to 5,"COc1cc(C(F)(F)F)ccc1-c1cc(=O)c2ccccc2[nH]1 [Compound 19, 2-[2-methoxy-4-(trifluoromethyl)phenyl]-1H-quinolin-4-one]"
9,2 to 5,"COc1cc(C)c(-c2cc(=O)c3ccccc3[nH]2)cc1C [Compound 23, 2-(4-methoxy-2,5-dimethyl-phenyl)-1H-quinolin-4-one]"
10,2 to 5,"CCOc1cc(C(F)(F)F)ccc1-c1cc(=O)c2ccccc2[nH]1 [Compound 28, 2-[2-ethoxy-4-(trifluoromethyl)phenyl]-1H-quinolin-4-one]"
11,2 to 5,"Cc1ccc(C)c(-c2cc(=O)c3ccccc3[nH]2)c1 [Compound 52, 2-(2,5-dimethylphenyl)-1H-quinolin-4-one]"
12,0.5 to 2,"Cc1cc(OC(F)(F)F)ccc1-c1cc(=O)c2ccccc2[nH]1 [Compound 54, 2-[2-methyl-4-(trifluoromethoxy)phenyl]-1H-quinolin-4-one]"
13,2 to 5,"O=c1cc(-c2cc3c(cc2Cl)CCC3)[nH]c2ccccc12 [Compound 70, 2-(6-chloroindan-5-yl)-1H-quinolin-4-one]"
14,2 to 5,"COc1cc(C)c(C)cc1-c1cc(=O)c2ccccc2[nH]1 [Compound 72, 2-(2-methoxy-4,5-dimethyl-phenyl)-1H-quinolin-4-one]"
15,0.5 to 2,"Cc1ccc(-c2cc(=O)c3ccccc3[nH]2)c(C)c1Cl [Compound 74, 2-(3-chloro-2,4-dimethyl-phenyl)-1H-quinolin-4-one]"
16,2 to 5,"Cc1cc(Cl)ccc1-c1cc(=O)c2ccccc2[nH]1 [Compound 75, 2-(4-chloro-2-methyl-phenyl)-1H-quinolin-4-one]"
17,0.5 to 2,"Cc1cc(C(C)(C)C)ccc1-c1cc(=O)c2c[n+]([O-])ccc2[nH]1 [Compound 107, 2-(4-tert-butyl-2-methyl-phenyl)-6-oxido-1H-1,6-naphthyridin-6-ium-4-one]"
18,2 to 5,"Cc1cc(C(C)(C)C)ccc1-c1cc(=O)c2cccnc2[nH]1 [Compound 111, 2-(4-tert-butyl-2-methyl-phenyl)-1H-1,8-naphthyridin-4-one]"

row,IC50 [µM],SMILES
1,0.5 to 2,"Cc1cc(Cl)c(Cl)cc1-c1cc(=O)c2ccccc2[nH]1 [Compound 117, 2-(4,5-dichloro-2-methyl-phenyl)-1H-quinolin-4-one]"
2,0.5 to 2,"Cc1cc(Cl)c(Cl)cc1-c1cc(=O)c2cnccc2[nH]1 [Compound 118, 2-(4,5-dichloro-2-methyl-phenyl)-1H-1,6-naphthyridin-4-one]"
3,0.5 to 2,"Cc1cc(C)c(-c2cc(=O)c3c(C#N)cccc3[nH]2)cc1C [Compound 123, 4-oxo-2-(2,4,5-trimethylphenyl)-1H-quinoline-5-carbonitrile]"
4,0.5 to 2,"Cc1cc(C)c(-c2cc(=O)c3ccccc3[nH]2)cc1C [Compound 124, 2-(2,4,5-trimethylphenyl)-1H-quinolin-4-one]"
5,0.5 to 2,"Cc1ccc2[nH]c(-c3ccc(C(C)(C)C)cc3C)cc(=O)c2c1 [Compound 126, 2-(4-tert-butyl-2-methyl-phenyl)-6-methyl-1H-quinolin-4-one]"
6,2 to 5,"Cc1cc(C2(C#N)CC2)ccc1-c1cc(=O)c2ccccc2[nH]1 [Compound 138, 1-[3-methyl-4-(4-oxo-1H-quinolin-2-yl)phenyl]cyclopropanecarbonitrile]"
7,2 to 5,"CCOC(=O)c1ccc(-c2cc(=O)c3ccccc3[nH]2)c(C)c1 [Compound 166, ethyl 3-methyl-4-(4-oxo-1H-quinolin-2-yl)benzoate]"
8,0.5 to 2,"COC(C)(C)c1ccc(-c2cc(=O)c3ccccc3[nH]2)c(C)c1 [Compound 180, 2-[4-(1-methoxy-1-methyl-ethyl)-2-methyl-phenyl]-1H-quinolin-4-one]"
9,0.5 to 2,"Cc1cc(-c2cc(=O)c3c[n+]([O-])ccc3[nH]2)c(C)nc1C(C)(C)C [Compound 195, 2-(6-tert-butyl-2,5-dimethyl-3-pyridyl)-6-oxido-1H-1,6-naphthyridin-6-ium-4-one]"
10,0.5 to 2,"Cc1cc(-c2cc(=O)c3c(=O)[nH]ccc3[nH]2)c(C)nc1C(F)(F)F [Compound 200, 2-[2,5-dimethyl-6-(trifluoromethyl)-3-pyridyl]-1,6-dihydro-1,6-naphthyridine-4,5-dione]"
11,0.5 to 2,"COc1cccc2[nH]c(-c3ccc(C4(C(F)(F)F)CC4)cc3C)cc(=O)c12 [Compound 208, 5-methoxy-2-[2-methyl-4-[1-(trifluoromethyl)cyclopropyl]phenyl]-1H-quinolin-4-one]"
12,0.5 to 2,"Cc1cc(C(C)(C)C)ccc1-c1cc(=O)c2cccc(C)c2[nH]1 [Compound 209, 2-(4-tert-butyl-2-methyl-phenyl)-8-methyl-1H-quinolin-4-one]"
13,0.5 to 2,"Cc1ccc(C(C)(C)C)cc1-c1cc(=O)c2c(C(N)=O)nccc2[nH]1 [Compound 212, 2-(5-tert-butyl-2-methyl-phenyl)-4-oxo-1H-1,6-naphthyridine-5-carboxamide]"
14,0.5 to 2,"Cc1nc(C(C)(C)C)ccc1-c1cc(=O)c2c(C(N)=O)nccc2[nH]1 [Compound 221, 2-(6-tert-butyl-2-methyl-3-pyridyl)-4-oxo-1H-1,6-naphthyridine-5-carboxamide]"
15,0.5 to 2,"CCc1cc(-c2cc(=O)c3c(C(N)=O)nccc3[nH]2)c(C)cc1C [Compound 224, 2-(5-ethyl-2,4-dimethyl-phenyl)-4-oxo-1H-1,6-naphthyridine-5-carboxamide]"
16,0.5 to 2,"CC(C)(C)c1ccc(-c2cc(=O)c3c(C(N)=O)nccc3[nH]2)c(F)c1 [Compound 228, 2-(4-tert-butyl-2-fluoro-phenyl)-4-oxo-1H-1,6-naphthyridine-5-carboxamide]"
17,0.5 to 2,"Cc1cc(-c2cc(=O)c3c(C(N)=O)nccc3[nH]2)c(C)cc1Cl [Compound 231, 2-(4-chloro-2,5-dimethyl-phenyl)-4-oxo-1H-1,6-naphthyridine-5-carboxamide]"
18,0.5 to 2,"Cc1cc(C)c(C(C)C)cc1-c1cc(=O)c2c(C(N)=O)nccc2[nH]1 [Compound 234, 2-(5-isopropyl-2,4-dimethyl-phenyl)-4-oxo-1H-1,6-naphthyridine-5-carboxamide]"
